Like-named read-outs stand apart in the source and are kept apart here.
Experiments:
[1] = target: T1, human somatostatin receptor subtype 2 (Homo sapiens, UniProt P30874); experiment: cAMP assay for SST2R (inhibition of cAMP via human SST2 receptor); type: cell-based; details: Table B, read-out: SST2 potency
T1 construct: expressed in transfected cells
Description: cAMP Assay Protocol for SST2R:

[2] = target: T2, human somatostatin receptor subtype 3 (Homo sapiens, UniProt P32745); experiment: cAMP assay for SST3R (inhibition of cAMP via human SST3 receptor); type: cell-based; details: from inhibition of cAMP via human SST5 receptor and human SST3 receptor
T2 construct: expressed in transfected cells
T2 sequence (P32745 whole entry): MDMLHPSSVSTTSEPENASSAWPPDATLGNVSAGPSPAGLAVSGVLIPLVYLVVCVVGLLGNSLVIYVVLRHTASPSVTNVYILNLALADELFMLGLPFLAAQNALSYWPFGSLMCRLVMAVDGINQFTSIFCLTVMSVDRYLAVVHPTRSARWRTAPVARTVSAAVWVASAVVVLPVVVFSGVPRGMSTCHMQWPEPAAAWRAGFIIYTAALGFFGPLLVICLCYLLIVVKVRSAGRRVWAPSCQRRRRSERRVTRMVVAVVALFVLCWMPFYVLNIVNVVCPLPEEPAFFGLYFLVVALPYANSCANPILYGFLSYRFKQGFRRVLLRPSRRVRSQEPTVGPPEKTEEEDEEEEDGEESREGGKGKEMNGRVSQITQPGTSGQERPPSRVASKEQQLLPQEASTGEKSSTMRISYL
Description: cAMP Assay Protocol for SST3R:

[3] = target: T3, human somatostatin receptor subtype 4 (Homo sapiens, UniProt P31391); experiment: cAMP assay for hSST4R (inhibition of cAMP via human SST4 receptor); type: cell-based; details: from inhibition of cAMP via human SST5 receptor and human SST4 receptor
T3 construct: expressed in transfected cells
T3 sequence (P31391 whole entry): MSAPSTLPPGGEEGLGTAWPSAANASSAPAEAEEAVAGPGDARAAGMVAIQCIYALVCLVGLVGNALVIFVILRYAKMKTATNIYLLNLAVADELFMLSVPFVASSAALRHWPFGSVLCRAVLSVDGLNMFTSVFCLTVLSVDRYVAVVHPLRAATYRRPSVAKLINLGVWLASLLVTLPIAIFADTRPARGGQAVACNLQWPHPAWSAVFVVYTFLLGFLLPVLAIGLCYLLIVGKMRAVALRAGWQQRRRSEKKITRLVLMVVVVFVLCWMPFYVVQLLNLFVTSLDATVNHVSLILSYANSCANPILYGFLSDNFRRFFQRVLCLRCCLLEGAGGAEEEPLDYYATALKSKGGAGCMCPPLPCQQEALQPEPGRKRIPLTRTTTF
Description: cAMP Assay Protocol hSST4R:

[4] = Liver microsomal stability assay; type: in vitro ADME; details: both sexes, human, pooled human liver microsomes; read-out: HLM Stability t½
Description: Example B-2: Liver Microsomal Stability Assay Protocol
The in vitro stabilities of compounds of interest were determined for various species using pooled male and female human, pooled male Sprague-Dawley rat, pooled male Cynomolgus monkey, and pooled male Beagle dog liver microsomes at microsomal protein concentrations of 0.5 mg/mL. Incubations were carried out in a potassium phosphate buffer (50 mM). The NADPH-generating system was composed of NADP+ (1 mM), magnesium chloride (3 mM), EDTA (1 mM), glucose-6-phosphate (5 mM) and glucose-6-phosphate dehydrogenase (1 Unit/mL) for all experiments. Compounds of interest in DMSO/acetonitrile were added to achieve a final incubation concentration of 1 μM (final DMSO content was 0.1% v/v and final acetonitrile content was 0.9%). The final incubation volume was 400 μL. Incubations were conducted at 37° C. for 0, 5, 10, 20, 40 and 60 minutes in a shaking water bath and terminated by removing 50 μL of incubation mixture and adding to 100 μL of ice cold acetonitrile containing internal standard. Following precipitation by centrifugation at 3500 rpm and 4° C. for 30 minutes, compounds of interest and internal standard were analyzed in the resultant supernatant using a multiple reaction monitoring (MRM) LC-MS/MS method. MS conditions were optimized for each analyte.
(§1) Table E illustrates representative human liver microsomal stability and time dependent CYP2D6 inhibition (TDI) of exemplary compounds.

[5] = target: T4, Cytochrome P450 (CYP) 2D6 enzyme (Homo sapiens, UniProt P10635); experiment: Cytochrome P450 (CYP) 2D6 enzyme time dependent inhibition (TDI) assay; type: in vitro ADME; details: human liver microsomes
T4 construct: using pooled male and female human liver microsomes; from tissue; host or cells: pooled male and female human liver microsomes
T4 sequence (P10635 whole entry): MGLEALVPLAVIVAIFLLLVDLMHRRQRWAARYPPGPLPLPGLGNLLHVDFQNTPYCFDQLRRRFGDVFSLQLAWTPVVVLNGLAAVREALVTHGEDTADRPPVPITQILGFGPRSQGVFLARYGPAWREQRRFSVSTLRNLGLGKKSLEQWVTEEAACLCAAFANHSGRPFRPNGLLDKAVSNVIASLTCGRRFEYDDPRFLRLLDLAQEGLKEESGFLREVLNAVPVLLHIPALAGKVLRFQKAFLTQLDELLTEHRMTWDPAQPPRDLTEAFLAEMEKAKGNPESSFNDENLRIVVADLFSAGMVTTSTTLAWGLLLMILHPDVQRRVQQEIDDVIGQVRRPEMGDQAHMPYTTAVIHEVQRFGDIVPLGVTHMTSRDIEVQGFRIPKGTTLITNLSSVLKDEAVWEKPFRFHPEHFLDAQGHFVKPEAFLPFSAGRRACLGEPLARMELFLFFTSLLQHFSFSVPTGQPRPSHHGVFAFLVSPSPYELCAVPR
Description: Example B-3: Cytochrome P450 (CYP) 2D6 Enzyme Time Dependent Inhibition (TDI) Assay Protocol
The NADPH-generating system mix was composed of potassium phosphate buffer pH 7.4 (50 mM), NADP+ (1 mM), magnesium chloride (3 mM), EDTA (1 mM), glucose-6-phosphate (5 mM), glucose-6-phosphate dehydrogenase (1 Unit/mL), human liver microsomes (0.1 mg/mL) and water. Compounds of interest in DMSO serial diluted to six different concentrations (final DMSO content of 0.1% v/v) were added to the NADPH-generating system. CYP 2D6 substrate Dextromethorphan was added at a final incubation concentration of 5 μM. The final incubation volume was 200 μL. Incubations were conducted at 37° C. for 10 minutes in a shaking water bath to evaluate the drug candidates as […] of CYP 2D6. In a separate test plate, drug candidates were pre-incubated at 37° C. for 30 minutes in a shaking water bath in NADPH-generating system mix in the absence of Dextromethorphan substrate to allow for the formation of metabolites. This plate was removed from the water bath and placed on ice for 5 minutes. Dextromethorphan substrate was then added and the plate was incubated at 37° C. for 10 minutes in a shaking water bath to determine if any metabolites formed during the 30 minute pre-incubation inhibit the CYP 2D6 enzyme. All incubations were terminated by removing 50 μL of incubation mixture and adding to 200 μL of ice cold acetonitrile containing internal standard. Following precipitation by centrifugation at 3500 rpm and 4° C. for 30 minutes, the resultant supernatant were analyzed by using a multiple reaction monitoring (MRM) LC-MS/MS method detecting for internal standard and the CYP 2D6 enzyme mediated Dextromethorphan O-demethylation metabolite Dextrorphan and IC50 values were determined.
as §1

[6] = target: human somatostatin receptor subtype 5 (Homo sapiens, UniProt P35346); experiment: cAMP assay for SST5R (inhibition of cAMP via human SST5 receptor); details: for Fold selectivity for SST5 vs SST2: SST5 over SST2, class symbols
Sequence of human somatostatin receptor subtype 5 (P35346 whole entry): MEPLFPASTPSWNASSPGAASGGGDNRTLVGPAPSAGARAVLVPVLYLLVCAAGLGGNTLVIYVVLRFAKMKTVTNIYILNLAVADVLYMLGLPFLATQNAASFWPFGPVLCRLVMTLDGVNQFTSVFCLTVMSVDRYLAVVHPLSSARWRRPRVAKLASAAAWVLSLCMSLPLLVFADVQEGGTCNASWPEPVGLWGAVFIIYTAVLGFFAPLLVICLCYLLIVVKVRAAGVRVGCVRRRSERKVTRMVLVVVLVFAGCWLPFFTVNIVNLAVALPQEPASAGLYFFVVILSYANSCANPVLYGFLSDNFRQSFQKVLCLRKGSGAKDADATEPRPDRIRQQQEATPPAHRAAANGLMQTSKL
Description: cAMP Assay Protocol for SST5R:
The cells are cultured at 37° C., 5% CO2 and 95% humidity. […] The cells are incubated for 20 minutes at 37° C. […] The cells are treated with 50 μL of lysis buffer (HRTF cAMP kit, Cisbio) for 30 minutes and then the lysate is diluted to 250 μL with assay buffer. The lysate is transferred to 384-well plates and cAMP detection and visualization antibodies are added and incubated for 1-24 hours at room temperature. The time-resolved fluorescent signal is read with a Tecan M1000Pro multiplate reader. The intracellular cAMP concentrations are calculated by regression to a standard curve and are plotted vs. the concentration of the compounds of the invention and the EC50 of the compounds are calculated using standard methods. All data manipulations are in GraphPad Prism v6 or v7.

[7] = t = 0 min pre-incubation, read-out: CYP2D6 inhibition, IC50 (μM) t = 0 min
[8] = t = 30 min pre-incubation, read-out: CYP2D6 inhibition, IC50 (μM) t = 30 min
[9] = read-out: SST5 potency, inhibition of cAMP via human SST5 receptor, Table B

T1 sequence (P30874 whole entry): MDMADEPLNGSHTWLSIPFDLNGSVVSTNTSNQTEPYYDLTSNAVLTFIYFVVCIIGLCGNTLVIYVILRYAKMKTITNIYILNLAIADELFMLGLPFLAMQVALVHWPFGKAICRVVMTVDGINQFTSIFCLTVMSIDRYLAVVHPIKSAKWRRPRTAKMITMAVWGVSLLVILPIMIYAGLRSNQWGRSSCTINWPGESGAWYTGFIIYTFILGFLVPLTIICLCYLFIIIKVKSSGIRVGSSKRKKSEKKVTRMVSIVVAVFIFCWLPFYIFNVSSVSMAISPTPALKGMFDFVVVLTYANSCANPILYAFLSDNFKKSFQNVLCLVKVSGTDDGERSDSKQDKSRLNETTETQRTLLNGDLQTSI

With `C[C@]1(N)CCN(c2c(-c3ccnc(C#N)c3)cncc2-c2nc3c(F)cccc3[nH]2)C1` [Compound 2-162, 4-[(3S)-3-amino-3-methylpyrrolidin-1-yl]-5-(4-fluoro-1H-1,3-benzodiazol-2-yl)-[3,4′-bipyridine]-2′-carbonitrile] the EC50 [1] was 100 to 1000 nM, the “Fold selectivity for SST5 vs SST3” value [2] was 517 fold and the “Fold selectivity for SST5 vs SST4” value [3] was 109 fold. It also gave a half-life at 1 μM [4] greater than 11.6 h, an IC50 [5, 7] greater than 10 µM and an IC50 [5, 8] greater than 10 µM. For the same molecule, the EC50 [6] was less than 10 nM, the “Fold selectivity for SST5 vs SST2” value [6] was “+++ (+++=≥500)” and the EC50 [6, 9] was less than 10 nM.
With `Cc1cc(F)cc(-c2cncc(-c3nc4cccc(C)c4[nH]3)c2N2CC[C@H](N)C2)c1` [Compound 2-182, (3S)-1-[3-(3-fluoro-5-methylphenyl)-5-(4-methyl-1H-1,3-benzodiazol-2-yl)pyridin-4-yl]pyrrolidin-3-amine] the EC50 [1] was 100 to 1000 nM, the “Fold selectivity for SST5 vs SST3” value [2] was 6.3 fold and the “Fold selectivity for SST5 vs SST4” value [3] was 0.94 fold. For the same molecule, the half-life at 1 μM [4] was 0.883 h, the IC50 [5, 7] was 7.6 µM and the IC50 [5, 8] was 6.5 µM. The EC50 [6] was less than 10 nM, the “Fold selectivity for SST5 vs SST2” value [6] was “++ (++=100 to 499)” and the EC50 [6, 9] was less than 10 nM.
With `Cc1cccc2nc(-c3cncc(-c4cc(F)cc(Cl)c4)c3N3CC[C@H](N)C3)[nH]c12` [Compound 2-183, (3S)-1-[3-(3-chloro-5-fluorophenyl)-5-(4-methyl-1H-1,3-benzodiazol-2-yl)pyridin-4-yl]pyrrolidin-3-amine] the EC50 [1] was 100 to 1000 nM, the “Fold selectivity for SST5 vs SST3” value [2] was 6.7 fold and the “Fold selectivity for SST5 vs SST4” value [3] was 4.0 fold. It also gave a half-life at 1 μM [4] of 1.28 h, an IC50 [5, 7] of 6.4 µM and an IC50 [5, 8] of 3.5 µM. For the same molecule, the EC50 [6] was less than 10 nM, the “Fold selectivity for SST5 vs SST2” value [6] was “++ (++=100 to 499)” and the EC50 [6, 9] was less than 10 nM.
In the case of `COc1cc(F)cc(-c2cncc(-c3nc4c(C)cccc4[nH]3)c2N2CC[C@H](N)C2)c1` [Compound 2-184, (3S)-1-[3-(3-fluoro-5-methoxyphenyl)-5-(4-methyl-1H-1,3-benzodiazol-2-yl)pyridin-4-yl]pyrrolidin-3-amine], the EC50 [1] is reported as 100 to 1000 nM, the “Fold selectivity for SST5 vs SST3” value [2] is reported as 7.0 fold and the “Fold selectivity for SST5 vs SST4” value [3] is reported as 1.4 fold. The half-life at 1 μM [4] was 0.967 h, the IC50 [5, 7] was 4.2 µM and the IC50 [5, 8] was 2.5 µM. The EC50 [6] was less than 10 nM, the “Fold selectivity for SST5 vs SST2” value [6] was “++ (++=100 to 499)” and the EC50 [6, 9] was less than 10 nM.
In the case of `Cc1cccc2nc(-c3cncc(-c4cc(F)cc(C(F)(F)F)c4)c3N3CC[C@H](N)C3)[nH]c12` [Compound 2-185, (3S)-1-{3-[3-fluoro-5-(trifluoromethyl)phenyl]-5-(4-methyl-1H-1,3-benzodiazol-2-yl)pyridin-4-yl}pyrrolidin-3-amine], the EC50 [1] is reported as 100 to 1000 nM, the “Fold selectivity for SST5 vs SST3” value [2] is reported as 6.1 fold and the “Fold selectivity for SST5 vs SST4” value [3] is reported as 1.2 fold. For the same molecule, the half-life at 1 μM [4] was 1.28 h, the IC50 [5, 7] was 9.5 µM and the IC50 [5, 8] was 2.3 µM. The EC50 [6] was less than 10 nM, the “Fold selectivity for SST5 vs SST2” value [6] was “++ (++=100 to 499)” and the EC50 [6, 9] was less than 10 nM.
For `COc1cc(-c2cncc(-c3nc4nccc(C)c4[nH]3)c2N2CC[C@](C)(N)C2)ccc1F` [Compound 2-189, (3S)-1-[3-(4-fluoro-3-methoxyphenyl)-5-{7-methyl-1H-imidazo[4,5-b]pyridin-2-yl}pyridin-4-yl]-3-methylpyrrolidin-3-amine], the EC50 [1] was 10 to 100 nM, the “Fold selectivity for SST5 vs SST3” value [2] was 27 fold and the half-life at 1 μM [4] was greater than 11.6 h. For the same molecule, the IC50 [5, 7] was greater than 10 µM, the IC50 [5, 8] was greater than 10 µM and the EC50 [6] was less than 10 nM. For the same molecule, the “Fold selectivity for SST5 vs SST2” value [6] was “++ (++=100 to 499)” and the EC50 [6, 9] was less than 10 nM.
For `Cc1ccnc2nc(-c3cncc(-c4ccc(F)c(F)c4)c3N3CC[C@](C)(N)C3)[nH]c12` [Compound 2-190, (3S)-1-[3-(3,4-difluorophenyl)-5-{7-methyl-1H-imidazo[4,5-b]pyridin-2-yl}pyridin-4-yl]-3-methylpyrrolidin-3-amine], the EC50 [1] was 10 to 100 nM, the “Fold selectivity for SST5 vs SST3” value [2] was 16 fold and the half-life at 1 μM [4] was 2.32 h. The IC50 [5, 7] was greater than 10 µM, the IC50 [5, 8] was greater than 10 µM and the EC50 [6] was less than 10 nM. The “Fold selectivity for SST5 vs SST2” value [6] was “+ (+=10 to 99)” and the EC50 [6, 9] was less than 10 nM.
In the case of `Cc1ccnc2nc(-c3cncc(-c4ccc(F)c(C(F)(F)F)c4)c3N3CC[C@](C)(N)C3)[nH]c12` [Compound 2-191, (3S)-1-{3-[4-fluoro-3-(trifluoromethyl)phenyl]-5-{7-methyl-1H-imidazo[4,5-b]pyridin-2-yl}pyridin-4-yl}-3-methylpyrrolidin-3-amine], the EC50 [1] is reported as 100 to 1000 nM, the “Fold selectivity for SST5 vs SST3” value [2] is reported as 24 fold and the half-life at 1 μM [4] is reported as 2.32 h. For the same molecule, the IC50 [5, 7] was 5.7 µM, the IC50 [5, 8] was 5.1 µM and the EC50 [6] was less than 10 nM. For the same molecule, the “Fold selectivity for SST5 vs SST2” value [6] was “+++ (+++=≥500)” and the EC50 [6, 9] was less than 10 nM.
With `Cc1ccnc2nc(-c3cncc(-c4ccc(F)c(Cl)c4)c3N3CC[C@](C)(N)C3)[nH]c12` [Compound 2-192, (3S)-1-[3-(3-chloro-4-fluorophenyl)-5-{7-methyl-1H-imidazo[4,5-b]pyridin-2-yl}pyridin-4-yl]-3-methylpyrrolidin-3-amine] the EC50 [1] was 10 to 100 nM, the “Fold selectivity for SST5 vs SST3” value [2] was 18 fold and the half-life at 1 μM [4] was 1.65 h. For the same molecule, the IC50 [5, 7] was 4.2 µM, the IC50 [5, 8] was 4.7 µM and the EC50 [6] was less than 10 nM. For the same molecule, the “Fold selectivity for SST5 vs SST2” value [6] was “++ (++=100 to 499)” and the EC50 [6, 9] was less than 10 nM.
In the case of `Cc1cccc2nc(-c3cncc(-c4cc(F)cc(F)c4)c3N3CC[C@H](N)C3)[nH]c12` [Compound 2-201, (3S)-1-[3-(3,5-difluorophenyl)-5-(4-methyl-1H-1,3-benzodiazol-2-yl)pyridin-4-yl]pyrrolidin-3-amine], the EC50 [1] is reported as 10 to 100 nM, the “Fold selectivity for SST5 vs SST3” value [2] is reported as 5.1 fold and the “Fold selectivity for SST5 vs SST4” value [3] is reported as 1.0 fold. The half-life at 1 μM [4] was 2.88 h, the IC50 [5, 7] was 4.7 µM and the IC50 [5, 8] was 1.8 µM. The EC50 [6] was less than 10 nM, the “Fold selectivity for SST5 vs SST2” value [6] was “+ (+=10 to 99)” and the EC50 [6, 9] was less than 10 nM.
